Measurements published in patent publication EP1285920A1, “C10 Ester sustituted taxanes as antitumor agents” (Florida State University Research Foundation, Inc., priority 2001, dated 2003).
Marks after values point to notes of the source that are not given here.

Legend:
MX-1 carcinoma = details: number of 6 mice; i.v. qd x 1 at MTD, Day 60; mg/kg: Taxol 36 (split dose), 0503 72.6, 0536 49, 0663 159, 0670 123, 0687 159, 0706 108, 0908 159, 0947 76.9, 0951 72.6, 0983 67.4, 0999 49, 1003 49, 1011 108
In short: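 Mice dosed with a single i.v. bolus (qd x 1) at each compound's MTD, formulated in 5% ethanol, 5% Cremophor, 90% isotonic saline. Study ended Day 60; complete response = tumor not palpable at study end.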

A2780 ovarian carcinoma = details: number of mice; i.v. qd x 1 at estimated MTD (Taxol 24 mg/kg, Taxotere 70 mg/kg, 0983 72.6 mg/kg); 5 mice/group (Taxotere 6)
Method: Dosing was initiated on Day 1. […] Taxotere was given i.v. on a qd x 1 schedule at a dose of 70 mg/kg. […] The study was terminated on Day 60. Treatment groups are detailed in Table 7.

SKMES lung carcinoma = assay: In vivo evaluation of oral administration against SKMES human lung carcinoma xenograft (Example 21); details: number of mice, single oral bolus Day 1, mg/kg: Taxol 40, 0687 228, 0503 73, 6 mice/group
Method: Female Nu/Nu mice (6-8 weeks of age; implanted with 1 mm^3 SKMES lung carcinoma fragments in the flank) were sorted into treatment groups of six mice each. […] Treatments were administered as a single oral bolus on Day 1, and the study was terminated on Day 60.
A complete response is obtained if the tumor is not palpable at the end of the study.
The total response rate is defined as the percentage of evaluable animals (excluding deaths due to procedure or toxicity) in a group that experience complete or partial responses at the termination of the study.

HCT116 carcinoma = details: number of 5 mice; i.v. qd x 1 at MTD, Day 60; mg/kg: Taxol 36 (split doses), 0503 72.6, 0536 49, 0663 159, 0670 123, 0687 159, 0706 108, 0908 159, 0947 76.9, 0951 72.6, 0983 72.6, 0999 49, 1003 49, 1011 108
In short: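 Mice bearing HCT116 tumours received a single i.v. maximum tolerated dose per compound, formulated in 5% ethanol, 5% Cremophor, 90% isotonic saline. Study ended on Day 60; complete response meant no palpable tumour at study end.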

blood cell populations = assay: Effect of oral treatment on blood cell populations and body weight in the MX-1 study (Example 22); assay type: in vivo, nu/nu mice; details: mg/kg: 0499 80, 0550 73, 0611 113, 0748 200
Method: (§1) Antitumor compounds were administered orally in a study to investigate whether such a formulation is efficacious against the MX-1 human breast carcinoma xenograft. Antitumor compound 0499 was formulated as Solution 1 in Example 6. Antitumor compound 0550 was formulated as Solution 2 in Example 6. Antitumor compound 0611 was formulated as Solution 3 in Example 6. Antitumor compound 0748 was formulated as Solution 4 in Example 6. Other antitumor compounds were formulated similarly. The compounds were prepared in a vehicle of 90% saline, 5% Cremophor, and 5% ethanol.
(§2) Female nu/nu mice (11-12 weeks of age; implanted subcutaneously with 1 mm^3 MX-1 human breast carcinoma fragments in the flank) were sorted into one control group (n=10) and four treatment (n=6) groups (group mean tumor size of 47-49 mg). The study was terminated on Day 63.
In addition to survival and tumor regression responses, the effect of treatment on blood cell populations was assessed. The major effect of these antitumor compounds on blood cell populations was a marked reduction in the neutrophil cell number. As well, monocyte depletion correlated fairly well with neutrophil reduction for each antitumor compound. […] There was a correlation between antitumor activity and reduced neutrophil count. In general, toxicity (as determined by neutrophil depletion) and weight loss correlated with efficacy. […] Importantly, the toxicities observed with the very efficacious antitumor compounds were manageable and reversible; neutrophil count and body weight rebounded from their low points in just a few days. Table 20 summarizes the weight reduction, neutrophil and monocyte measurements on Day 4, with tumor weight reduction calculated at Day 18: Table 20

HCT116 = assay: In Vitro cytotoxicity measured by the cell colony formation assay; assay type: cell-based, human; details: Homo sapiens, HCT-116; read-out: IN VITRO ID 50 HCT116
In short: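 Four hundred cells per dish in McCoy's 5a medium with 10% FBS were allowed to attach for 5 h at 37 °C. They were then exposed to compound for 72 h at 37 °C, added as a 10× stock made fresh in medium. After HBSS rinsing and refeeding, colonies were counted after 7 days.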

[1] = system: MX-1 human breast carcinoma; assay type: in vivo
Method: as §1, §2

[2] = Day 4, vs vehicle, single oral bolus
[3] = number of mice, single oral bolus Day 1, mg/kg: 0499 80, 0550 73, 0611 113, 0748 200, 6 mice/group, Day 63

| SMILES | Toxic Deaths (MX-1 carcinoma) | Toxic Deaths (A2780 ovarian carcinoma) | Toxic Deaths (SKMES lung carcinoma) | Complete Response (SKMES lung carcinoma; Day 60) | Partial Response (SKMES lung carcinoma; Day 60) | Stable Disease (SKMES lung carcinoma; Day 60) | Toxic Deaths (HCT116 carcinoma) | % Reduction (Monocytes) (blood cell populations; [2]) [%] | % Reduction (Neutrophils) (blood cell populations; [2]) [%] | Monocytes (K/µL) (blood cell populations; Day 4, single oral bolus Day 1) | Neutrophils (K/µL) (blood cell populations; Day 4, single oral bolus Day 1) | Maximum Weight Loss (Day) (blood cell populations; body weight, day of maximum in parentheses in the cell, single oral bolus Day 1) | IC50 (HCT116) [nM] | complete tumor regressions ([1]; MX-1, single oral bolus Day 1, six mice per group (0611: five evaluable), ended Day 63) | Toxic Deaths ([1]; number of mice, single oral bolus Day 1, mg/kg: 0499 80, 0550 73, 0611 113, 0748 200, 6 mice/group) | Complete Response [1, 3] | Partial Response [1, 3] | Stable Disease [1, 3] | % Reduction (Weight) ([1]; po, 432 h) [%] |
| --- | --- | --- | --- | --- | --- | --- | --- | --- | --- | --- | --- | --- | --- | --- | --- | --- | --- | --- | --- |
| CCC(=O)O[C@H]1C(=O)[C@@]2(C)[C@H]([C@H](OC(=O)c3ccccc3)[C@]3(O)C[C@H](OC(=O)[C@H](O)[C@@H](NC(=O)c4ccccc4)c4cccs4)C(C)=C1C3(C)C)[C@]1(OC(C)=O)CO[C@@H]1C[C@@H]2O [Compound 0687] | 1 | 0 | 1^a | 4 | 1 | 0 | 0 |  |  |  |  |  |  |  |  |  |  |  |  |
| CCC(=O)O[C@H]1C(=O)[C@@]2(C)[C@H]([C@H](OC(=O)c3ccccc3)[C@]3(O)C[C@H](OC(=O)[C@H](O)[C@@H](NC(=O)OC(C)(C)C)c4ccccc4)C(C)=C1C3(C)C)[C@]1(OC(C)=O)CO[C@@H]1C[C@@H]2O [Compound 0611] |  |  |  |  |  |  |  | 56.3 | 93.7 | 0.042 | 0.057 | -15.0% (5) | < 10 | four | 1^a | 4 | 0 | 0 | 100.0 |
